Columns and labels:
[1] = test system: α1 adrenergic receptors (rat cerebral cortex); experiment: Binding assay, α1 adrenergic receptor ([3H]prazosin); conditions: for α1 [%] affinity test result: compound 1×10^−6 M; for Ki: read-out: Inhibition constant Ki α1
Method: (§1) The specific ligand binding to the receptors is defined as the difference between the total binding and the non-specific binding determined in the presence of an excess of unlabelled ligand.
(§2) The inhibition constants (Ki) were calculated using the Cheng Prusoff equation (Ki=IC50/(1+(L/KD)), where L=concentration of radioligand in the assay, and KD=affinity of the radioligand for the receptor). A Scatchard plot is used to determine the Kd. The IC50 values (concentration causing a half-maximal inhibition of control specific binding) and Hill coefficients (nH) were determined by non-linear regression analysis of the competition curves generated with mean replicate values using Hill equation curve fitting (Y=D+[(A−D)/(1+(C/C50)^nH)], where Y=specific binding, D=minimum specific binding, A=maximum specific binding, C=compound concentration, C50=IC50, and nH=slope factor). This analysis was performed using a software developed at Cerep (Hill software) and validated by comparison with data generated by the commercial software SigmaPlot® 4.0 for Windows® (©1997 by SPSS Inc.).
Experimental conditions for tests are given in Table 7, and results of tests for representative compounds are given in Tables 8a and 8b (α1 receptors) and in Tables 9a and 9b (α2C receptors).

[2] = test system: σ receptors (rat cerebral cortex); experiment: Binding assay, σ receptors ([3H]DTG); conditions: compound 1×10^−6 M
Method: (§3) Moreover, ability of the compounds of the invention to block potassium channel hERG was tested.
as §1, §2
Experimental conditions for tests are given in Table 14, and results of tests for representative compounds are given in Table 15a and 15b.

[3] = molecular target: T1, 5-HT2A (h), human recombinant (HEK-293 cells) (Homo sapiens, UniProt P28223); experiment: Cellular functional assay 5-HT2A (h) agonism; type: cell-based; conditions: compound 1×10^−6 M; control 10 μM serotonin
T1 construct: expressed in transfected cells; host or cells: HEK-293 cells
Method: The results are expressed as a percent of control specific agonist response ((measured specific response/control specific agonist response)×100) obtained in the presence of tested compound.
The EC50 values (concentration producing a half-maximal specific response) and IC50 values (concentration causing a half-maximal inhibition of the control specific agonist response) were determined by non-linear regression analysis of the concentration-response curves generated with mean replicate values using Hill equation curve fitting (Y=D+[(A−D)/(1+(C/C50)nH)], where Y=specific response, D=minimum specific response, A=maximum specific response, C=compound concentration, and C50=EC50 or IC50, and nH=slope factor).
For the antagonists, the apparent dissociation constants (Kb) were calculated using the modified Cheng Prusoff equation (Kb=IC50/(1+(A/EC50A)), where A=concentration of reference agonist in the assay, and EC50A=EC50 value of the reference agonist).

[4] = molecular target: T2, hERG potassium channels (KCNH2 gene, expressed in CHO cells) (Homo sapiens, UniProt Q12809); experiment: Ability to block hERG potassium channel, electrophysiology (IonWorks Quattro); type: cell-based; conditions: for hERG [%] (% block of hERG current): compound 1×10^−5 M; for Ki: read-out: Inhibition constants Ki for hERG potassium channels (column head H1 [nM])
T2 construct: expressed in transfected cells; host or cells: CHO cells
Method: Ability to block hERG potassium channels was determined using the electrophysiological method and cloned hERG potassium channels (KCNH2 gene, expressed in CHO cells) as biological material. The effects were evaluated using IonWorks™ Quattro system (MDS-AT).
hERG current was elicited using a pulse pattern with fixed amplitudes (conditioning prepulse: −80 mV for 25 ms; test pulse: +40 mV for 80 ms) from a holding potential of 0 mV. hERG current was measured as a difference between the peak current at 1 ms after the test step to +40 mV and the steady-state current at the end of the step to +40 mV.
Data acquisition and analyses were performed using the IonWorks Quattro™ system operation software (version 2.0.2; Molecular Devices Corporation, Union City, Calif.). Data were corrected for leak current.
The hERG block was calculated as: % Block=(1−ITA/IControl)×100%, where IControl and ITA were the currents elicited by the test pulse in control and in the presence of a test compound, respectively.

[5] = molecular target: T3, 5-HT6 receptor, human recombinant (Homo sapiens, UniProt P50406); experiment: Binding assay, 5-HT6 receptor ([3H]LSD); conditions: read-out: Inhibition constant Ki 5-HT6
T3 construct: purchased PerkinElmer
Method: as §3, §1
as §2, with “factor).” for “factor). This analysis was performed using a software developed at Cerep (Hill software) and validated by comparison with data generated by the commercial software SigmaPlot® 4.0 for Windows® (©1997 by SPSS Inc.).”

[6] = molecular target: T4, 5-HT1A receptor (rat hippocampus) (Rattus norvegicus, UniProt P19327); experiment: Binding assay, 5-HT1A receptor ([3H]8-OH-DPAT); conditions: read-out: Inhibition constant Ki 5-HT1A
T4 construct: hippocampus; from tissue; host or cells: rat hippocampus
T4 sequence (P19327 1-422): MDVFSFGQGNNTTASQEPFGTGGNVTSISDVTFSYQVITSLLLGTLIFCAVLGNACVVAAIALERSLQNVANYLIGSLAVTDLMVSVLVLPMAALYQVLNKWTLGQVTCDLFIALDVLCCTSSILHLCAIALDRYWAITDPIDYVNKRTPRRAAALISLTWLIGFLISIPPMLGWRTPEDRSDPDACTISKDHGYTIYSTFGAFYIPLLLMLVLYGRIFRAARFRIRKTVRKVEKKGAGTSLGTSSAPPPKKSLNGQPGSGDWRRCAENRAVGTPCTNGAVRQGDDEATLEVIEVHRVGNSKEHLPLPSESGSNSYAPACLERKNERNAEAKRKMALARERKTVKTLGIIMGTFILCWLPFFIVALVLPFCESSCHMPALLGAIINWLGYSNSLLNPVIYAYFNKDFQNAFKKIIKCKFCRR
Method: as §3, §1
as §2, with “factor).” for “factor). This analysis was performed using a software developed at Cerep (Hill software) and validated by comparison with data generated by the commercial software SigmaPlot® 4.0 for Windows® (©1997 by SPSS Inc.).”

[7] = molecular target: T5, human recombinant D3 receptors (Homo sapiens, UniProt P35462); experiment: Binding assay, dopaminergic D3 receptor ([3H]methylspiperone); conditions: read-out: Inhibition constant Ki D3
T5 construct: purchased PerkinElmer
Method: as §3, §1
as §2, with “factor).” for “factor). This analysis was performed using a software developed at Cerep (Hill software) and validated by comparison with data generated by the commercial software SigmaPlot® 4.0 for Windows® (©1997 by SPSS Inc.).”

[8] = molecular target: T6, M3 muscarinic receptors, human recombinant (CHO cells) (Homo sapiens, UniProt P20309); experiment: Binding assay, M3 muscarinic receptor ([3H]4-DAMP); conditions: compound 1×10^−6 M
T6 construct: expressed in transfected cells; host or cells: CHO cells
Method: as §3, §1, §2
Experimental conditions for tests are given in Table 10, and results of tests for representative compounds are given in Table 11.

T6 sequence (P20309 whole entry): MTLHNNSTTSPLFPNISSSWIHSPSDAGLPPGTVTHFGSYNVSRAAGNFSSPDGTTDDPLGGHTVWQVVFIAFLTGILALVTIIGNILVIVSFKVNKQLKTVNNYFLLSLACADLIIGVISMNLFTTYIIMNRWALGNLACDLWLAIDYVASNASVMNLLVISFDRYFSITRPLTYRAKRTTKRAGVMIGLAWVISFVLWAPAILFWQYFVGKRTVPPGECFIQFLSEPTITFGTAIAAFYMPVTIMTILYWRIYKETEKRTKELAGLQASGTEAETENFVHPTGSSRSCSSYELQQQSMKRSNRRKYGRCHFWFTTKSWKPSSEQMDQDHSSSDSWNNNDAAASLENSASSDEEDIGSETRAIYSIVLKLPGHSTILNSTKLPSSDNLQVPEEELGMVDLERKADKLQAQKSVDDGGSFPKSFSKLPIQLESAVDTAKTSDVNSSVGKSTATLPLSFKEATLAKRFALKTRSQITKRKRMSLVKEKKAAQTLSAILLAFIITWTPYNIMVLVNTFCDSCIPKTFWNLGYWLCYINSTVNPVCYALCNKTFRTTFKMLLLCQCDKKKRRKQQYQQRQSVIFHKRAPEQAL
T1 sequence (P28223 whole entry): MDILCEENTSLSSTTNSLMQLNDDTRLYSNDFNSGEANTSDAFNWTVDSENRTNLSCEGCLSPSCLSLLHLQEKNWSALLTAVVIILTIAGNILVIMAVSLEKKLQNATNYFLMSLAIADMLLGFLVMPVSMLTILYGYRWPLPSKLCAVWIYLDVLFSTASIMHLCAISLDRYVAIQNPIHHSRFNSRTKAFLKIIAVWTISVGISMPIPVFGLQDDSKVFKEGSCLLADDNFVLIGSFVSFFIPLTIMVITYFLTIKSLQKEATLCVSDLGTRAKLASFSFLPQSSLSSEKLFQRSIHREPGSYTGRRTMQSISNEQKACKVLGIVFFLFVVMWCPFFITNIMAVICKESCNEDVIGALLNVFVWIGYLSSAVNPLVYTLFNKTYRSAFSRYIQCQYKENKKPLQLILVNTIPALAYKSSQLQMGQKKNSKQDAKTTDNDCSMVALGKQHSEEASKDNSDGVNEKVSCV
T2 sequence (Q12809 whole entry): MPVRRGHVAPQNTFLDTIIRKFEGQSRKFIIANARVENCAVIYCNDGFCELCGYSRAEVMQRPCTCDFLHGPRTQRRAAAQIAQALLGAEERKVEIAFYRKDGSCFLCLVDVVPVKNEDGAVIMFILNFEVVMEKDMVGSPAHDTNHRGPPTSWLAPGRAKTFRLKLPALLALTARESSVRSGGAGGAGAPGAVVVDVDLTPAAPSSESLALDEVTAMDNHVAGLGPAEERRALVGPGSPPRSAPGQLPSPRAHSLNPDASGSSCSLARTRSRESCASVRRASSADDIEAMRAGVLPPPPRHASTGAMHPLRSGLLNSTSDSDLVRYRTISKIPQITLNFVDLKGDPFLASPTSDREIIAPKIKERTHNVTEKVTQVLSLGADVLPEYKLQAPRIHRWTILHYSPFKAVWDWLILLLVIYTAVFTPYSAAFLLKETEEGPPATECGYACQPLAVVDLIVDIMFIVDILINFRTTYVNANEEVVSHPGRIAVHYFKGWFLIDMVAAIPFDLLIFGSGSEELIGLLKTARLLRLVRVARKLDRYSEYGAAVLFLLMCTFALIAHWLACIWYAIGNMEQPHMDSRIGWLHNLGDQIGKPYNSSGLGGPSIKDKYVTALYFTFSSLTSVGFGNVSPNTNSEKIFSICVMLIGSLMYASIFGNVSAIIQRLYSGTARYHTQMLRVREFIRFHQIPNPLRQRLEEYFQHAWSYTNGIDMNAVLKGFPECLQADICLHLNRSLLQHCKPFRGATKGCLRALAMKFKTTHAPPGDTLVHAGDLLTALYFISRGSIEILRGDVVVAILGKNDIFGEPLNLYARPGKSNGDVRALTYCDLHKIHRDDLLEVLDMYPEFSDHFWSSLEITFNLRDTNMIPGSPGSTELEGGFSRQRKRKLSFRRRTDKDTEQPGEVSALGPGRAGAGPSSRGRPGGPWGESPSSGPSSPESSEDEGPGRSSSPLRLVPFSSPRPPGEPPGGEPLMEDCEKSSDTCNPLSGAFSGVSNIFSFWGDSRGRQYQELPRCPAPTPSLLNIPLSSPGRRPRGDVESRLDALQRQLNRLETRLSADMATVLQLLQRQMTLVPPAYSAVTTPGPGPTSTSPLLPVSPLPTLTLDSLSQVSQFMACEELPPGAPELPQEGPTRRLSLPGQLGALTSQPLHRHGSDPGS
T3 sequence (P50406 whole entry): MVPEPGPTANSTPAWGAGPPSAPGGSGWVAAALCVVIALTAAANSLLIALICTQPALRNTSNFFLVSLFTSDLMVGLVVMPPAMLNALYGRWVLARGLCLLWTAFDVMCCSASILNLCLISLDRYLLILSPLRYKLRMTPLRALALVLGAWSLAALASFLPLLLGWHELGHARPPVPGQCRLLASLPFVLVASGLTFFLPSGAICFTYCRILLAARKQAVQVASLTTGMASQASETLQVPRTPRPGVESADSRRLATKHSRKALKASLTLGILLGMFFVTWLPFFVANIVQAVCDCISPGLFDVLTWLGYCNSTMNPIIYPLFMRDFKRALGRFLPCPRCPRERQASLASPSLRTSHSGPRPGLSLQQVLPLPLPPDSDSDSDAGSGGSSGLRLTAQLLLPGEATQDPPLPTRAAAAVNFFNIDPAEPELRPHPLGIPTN
T5 sequence (P35462 whole entry): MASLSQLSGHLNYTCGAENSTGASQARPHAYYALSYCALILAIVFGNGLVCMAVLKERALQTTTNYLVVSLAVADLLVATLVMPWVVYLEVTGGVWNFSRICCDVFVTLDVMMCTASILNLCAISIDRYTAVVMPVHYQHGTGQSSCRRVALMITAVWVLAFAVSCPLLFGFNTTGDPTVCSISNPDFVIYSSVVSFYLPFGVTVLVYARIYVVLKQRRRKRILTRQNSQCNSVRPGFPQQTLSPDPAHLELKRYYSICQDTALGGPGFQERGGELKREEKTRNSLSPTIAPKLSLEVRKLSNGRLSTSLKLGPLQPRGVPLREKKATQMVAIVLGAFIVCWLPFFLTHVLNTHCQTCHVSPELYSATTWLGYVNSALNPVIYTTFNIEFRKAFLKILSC

| Compound | α1 [%] affinity test result [1] [%] | σ [%] affinity test result [2] [%] | 5-HT2A-ag [%] [3] [%] | hERG [%] (% block of hERG current) [4] | Ki [1] [nM] | Ki [5] [nM] | Ki [6] [nM] | Ki [7] [nM] | M3 [%] affinity test result [8] [%] | Ki [4] [nM] |
| --- | --- | --- | --- | --- | --- | --- | --- | --- | --- | --- |
| O=C1CCc2ccc(OCCCN3CCN(c4cccc5c4ccn5Cc4ccccc4)CC3)cc2N1 [Compound 4, 7-[3-[4-(1-Benzylindol-4-yl)piperazin-1-yl]propoxy]-3,4-dihydro-1H-quinolin-2-one] | 68 | 45 | 2 | 27 |  |  |  |  |  |  |
| O=C1CCc2ccc(OCCCN3CCN(c4cccc5c4ccn5S(=O)(=O)c4ccccc4)CC3)cc2N1 [Compound 23, 7-[3-[4-[1-(Benzensulphonyl)indol-4-yl]piperazin-1-yl]propoxy]-3,4-dihydro-1H-quinolin-2-one] | 55 | 13 |  | 7 | 290 | 2.1 | 6.2 | 3.4 | 16 | > 10000 |
| O=C1CCc2ccc(OCCCCN3CCN(c4cccc5c4ccn5S(=O)(=O)c4ccccc4)CC3)cc2N1 [Compound 24, 7-(4-(4-(1-(Phenylsulphonyl)-1H-indol-4-yl)piperazin-1-yl)butoxy)-3,4-dihydroquinolin-2(1H)-one] | 92 | 57 |  | 9 | 22 | 0.35 | 1.2 | 0.81 | 37 | > 10000 |
| NC(=O)c1ccccc1OCCCN1CCN(c2cccc3c2ccn3S(=O)(=O)c2ccccc2)CC1 [Compound 72, 2-[3-[4-[1-(Benzenesulfonyl)indol-4-yl]piperazin-1-yl]propoxy]-benzamide] |  |  | 2 |  |  | 0.31 | 3.9 |  | 23 |  |
| O=C1CCc2ccc(OCCCCN3CCN(c4cccc5c4ccn5Cc4ccccc4)CC3)cc2N1 [Compound 5, 7-(4-(4-(1-Benzyl-1H-indol-4-yl)piperazin-1-yl)butoxy)-3,4-dihydroquinolin-2(1H)-one] | 88 | 52 | 8 | 30 |  |  |  |  |  |  |
| O=C1CCc2ccc(OCCCCN3CCN(c4cccc5c4ccn5Cc4cccc(F)c4)CC3)cc2N1 [Compound 63, 7-[4-[4-[1-[(3-Fluorophenyl)methyl]indol-4-yl]piperazin-1-yl]butoxy]-3,4-dihydro-1H-quinolin-2-one] | 86 |  | 6 |  |  |  |  |  |  |  |
| O=C1CCc2ccc(OCCCCN3CCN(c4cccc5c4ccn5Cc4cccc(Cl)c4)CC3)cc2N1 [Compound 67, 7-[4-[4-[1-[(3-Chlorophenyl)methyl]indol-4-yl]piperazin-1-yl]butoxy]-3,4-dihydro-1H-quinolin-2-one] |  |  | 4 |  |  |  | 7 |  |  |  |

— patent US20140121216A1, “INDOLEAMINE DERIVATIVES FOR THE TREATMENT OF CENTRAL NERVOUS SYSTEM DISEASES” (Adamed Sp. z o.o., priority 2011, published 2014)
